Columns and labels:
[1] = target: T1, human EP2 prostanoid receptors (Homo sapiens, UniProt P43116); assay: Agonist activity at recombinant human EP2 prostanoid receptors (cAMP in HEK-293 clones); type: cell-based; conditions: for EC50: HEK-293 stably transfected with human EP2, cAMP accumulation, read-out: pEC50 EP2 (converted); for activity (EP2 part): functional classification at EP2
T1 construct: expressed in transfected cells; host or cells: HEK-293
Description: Culture media was Minimal essential media (MEM), supplemented with 10% foetal bovine serum, 100 U/ml penicillin, […] streptomycin, 2.5 μg/ml fungizone, 2mM glutamine. Cells were cultured to confluency (3-4 days) prior to use. Culture media was removed, and confluent cells washed three times in MEM. […] Cells were then stimulated by the addition of 25 μl of PGE2 or agonists prepared in assay buffer. In antagonist studies, cells were pre-incubated with compounds for 30 minutes prior to PGE2-mediated stimulation Plates were incubated for 15 min at 37° C., before termination of the reaction by the addition of 25 μl 1M HCl. The plate was then frozen at -20° C. overnight before determination of cAMP concentration. Stimulated cAMP levels were determined by radioligand displacement binding. In brief, plates were thawed rapidly in a waterbath, and the samples neutralised by the addition of 25 μl 1M NaOH. 30 μl was transferred to Millipore plates pre-coated with 0.5% Polyethylenimine (PEI). Samples were diluted by addition of 90 μl cAMP determination buffer (50 mM Tris, 5 mM EDTA, pH 7.0). […] 15 μl of 2 nM (final concentration) [^3H] cAMP, and 15 μl of 3'5'-cAMP protein kinase (8 μg/well final concentration) prepared in cAMP determination buffer containing 0.1% BSA, were added to each well. Plates were incubated on ice for 2 hours, before bound and free radiolabel were separated by vacuum filtration harvesting using the Millipore vacuum manifold, using ice cold water as the termination buffer. The sealing mat was removed from the Millipore plates, and the filters allowed to dry overnight. 50 μl Microscint 0 (Packard Bioscience) was added to each well, and the plate counted using the Micro-Beta Trilux topcount ^3H program. cAMP accumulation was determined from the standard curve, and values calculated in pmoles cAMP/well. Antagonists affinities (pA2 values) were determined assuming a slope of unity and the […]-Schild equation, where pA2=log [concentration ratio-1]-log[antagonist].

human EP2 receptor = target: T2, human EP2 receptor (Homo sapiens, UniProt P43116); assay: Binding ability to human EP receptors ([3H]PGE2 displacement), EP2; conditions: membranes expressing human EP2; [3H]PGE2 3 nM; Cheng-Prusoff; read-out: pKi (M) EP2 (converted)
T2 construct: expressed in transfected cells
Description: (§1) Membranes were prepared from cells stably transfected with human EP receptor cDNA. In brief, cells were cultured to confluency, scraped from culture flasks, and centrifuged (800 g, 8 minutes, 4° C.). Cells were twice washed in ice cold homogenisation buffer containing 10 mMTris-HCl, 1 mM EDTA.2Na, 250 mM sucrose, 1 mM PMSF, 0.3 mM indomethacin, pH 7.4, homogenised and re-centrifuged as before. The supernatant was stored on ice and pellets re-homogenised and re-spun. Supernatants were pooled and centrifuged at 40000 g, 10 minutes, 4° C. Resultant membrane pellets were stored at −80° C. until use. For assay, membranes expressing human EP4, EP3, EP2 or EP1 receptors were incubated in Millipore (MHVBN45) plates containing assay buffer, radiolabelled [^3H]PGE2 and 0.1 to 10 000 nM concentrations of compounds. Incubations were performed at suitable temperatures and for suitable times to allow equilibrium to be reached. Non-specific binding was determined in the presence of 10 uM PGE2. Bound and free radiolabel was separated by vacuum manifold filtration using appropriate wash buffers, and bound radiolabel was determined by scintillation counting. Constituents of each of the buffers are included in table 1 below. […] Raven Press, New York, 2nd edition.

human EP4 receptor = target: T3, human EP4 receptor (Homo sapiens, UniProt P35408); assay: Binding ability to human EP receptors ([3H]PGE2 displacement), EP4; conditions: membranes expressing human EP4; [3H]PGE2 1 nM; Cheng-Prusoff; read-out: pKi (M) EP4 (converted)
T3 construct: expressed in transfected cells
Description: as §1

human EP3 receptor = target: T4, human EP3 receptor (Homo sapiens, UniProt P43115); assay: Binding ability to human EP receptors ([3H]PGE2 displacement), EP3; conditions: membranes expressing human EP3; [3H]PGE2 2.5 nM; Cheng-Prusoff; read-out: pKi (M) EP3 (converted)
T4 construct: expressed in transfected cells
T4 sequence (P43115 1-390): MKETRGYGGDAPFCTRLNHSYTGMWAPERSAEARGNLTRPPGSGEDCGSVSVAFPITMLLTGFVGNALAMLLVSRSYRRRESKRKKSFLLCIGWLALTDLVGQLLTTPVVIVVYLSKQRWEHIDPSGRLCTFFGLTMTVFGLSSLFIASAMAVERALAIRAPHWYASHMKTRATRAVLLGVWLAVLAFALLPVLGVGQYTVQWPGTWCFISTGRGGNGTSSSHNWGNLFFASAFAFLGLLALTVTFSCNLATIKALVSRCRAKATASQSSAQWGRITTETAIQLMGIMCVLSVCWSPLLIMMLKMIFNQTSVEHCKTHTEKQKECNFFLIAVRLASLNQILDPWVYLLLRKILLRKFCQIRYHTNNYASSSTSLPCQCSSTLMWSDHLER
Description: as §1

T3 sequence (P35408 whole entry): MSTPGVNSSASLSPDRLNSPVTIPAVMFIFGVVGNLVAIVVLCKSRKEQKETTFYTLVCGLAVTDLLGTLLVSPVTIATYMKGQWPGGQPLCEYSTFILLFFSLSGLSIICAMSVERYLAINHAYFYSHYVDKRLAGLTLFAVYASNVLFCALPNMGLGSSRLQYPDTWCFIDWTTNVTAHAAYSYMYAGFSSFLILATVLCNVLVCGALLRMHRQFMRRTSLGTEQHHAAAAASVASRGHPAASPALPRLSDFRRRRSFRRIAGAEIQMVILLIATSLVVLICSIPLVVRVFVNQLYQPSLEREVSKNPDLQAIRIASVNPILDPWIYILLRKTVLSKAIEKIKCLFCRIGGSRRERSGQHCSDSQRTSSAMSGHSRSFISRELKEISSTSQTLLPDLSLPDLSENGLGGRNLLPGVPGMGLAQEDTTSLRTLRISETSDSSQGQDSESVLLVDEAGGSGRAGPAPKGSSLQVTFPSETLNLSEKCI
T2 sequence (P43116 whole entry): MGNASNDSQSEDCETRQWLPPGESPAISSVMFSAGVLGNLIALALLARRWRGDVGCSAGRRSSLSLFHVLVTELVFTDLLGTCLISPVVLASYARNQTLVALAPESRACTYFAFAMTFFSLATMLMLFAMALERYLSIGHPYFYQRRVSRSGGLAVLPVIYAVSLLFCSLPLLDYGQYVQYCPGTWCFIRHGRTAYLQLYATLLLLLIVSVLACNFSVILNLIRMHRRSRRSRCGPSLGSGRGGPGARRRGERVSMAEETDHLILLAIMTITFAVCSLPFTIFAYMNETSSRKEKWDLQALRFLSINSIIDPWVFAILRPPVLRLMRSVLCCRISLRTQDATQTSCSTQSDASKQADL
T1 sequence (P43116 whole entry): as above

SMILES | EC50 [1] [µM] | activity (EP2 part) [1] | Ki (human EP2 receptor) [M] | Ki (human EP4 receptor) [M] | Ki (human EP3 receptor) [M]
O=C(O)Cc1cccc(NC(=O)c2ccc(-c3ccc4[nH]ccc4c3)o2)c1 [Compound 41] | < 1 | EP2 agonist | < 1e-06 | > 1e-05 | > 1e-05
O=C(O)Cc1cccc(NC(=O)c2ccc(-c3ccc(F)cc3)o2)c1 [Compound 42, (3-{[5-(4-Fluoro-phenyl)-furan-2-carbonyl]-amino}-phenyl)-acetic acid] | < 0.1 | EP2 agonist | < 1e-06 | > 1e-05 | > 1e-05
O=C(O)Cc1cccc(NC(=O)c2csc(-c3ccccc3)n2)c1 [Compound 54, {3-[(2-Phenyl-thiazole-4-carbonyl)-amino]-phenyl}-acetic acid] | < 1 | EP2 agonist | < 1e-06 | > 1e-05 | > 1e-05
O=C(O)c1cccc(CNC(=O)c2ccc(-c3ccccc3)o2)c1 [Compound 57, 3-{[(5-Phenyl-furan-2-carbonyl)-amino]-methyl}-benzoic acid] | < 1 | EP2 Agonist | < 1e-05 | > 1e-05 | > 1e-05
O=C(O)CCc1cccc(NC(=O)c2ccc(-c3ccccc3)o2)c1 [Compound 62, 3-{3-[(5-Phenyl-furan-2-carbonyl)-amino]-phenyl}-propionic acid] | < 0.1 | EP2 agonist | < 1e-06 | > 1e-05 | > 1e-05
O=C(O)/C=C/c1cccc(NC(=O)c2ccc(-c3ccc(F)cc3)o2)c1 [Compound 71, 3-(3-{[5-(4-Fluoro-phenyl)-furan-2-carbonyl]-amino}-phenyl)-acrylic acid] | – | EP2 agonist | < 1e-07 | > 1e-05 | > 1e-05
O=C(Nc1cccc(CCO)c1)c1ccc(-c2ccccc2)o1 [Compound 74] | < 10 | – | < 1e-05 | > 1e-05 | > 1e-05
O=C(Nc1cccc(Cc2nnn[nH]2)c1)c1ccc(-c2cccc(Cl)c2)o1 [Compound 81, 5-(3-Chloro-phenyl)-furan-2-carboxylic acid [3-(1H-tetrazol-5-ylmethyl)-phenyl]-amide] | < 0.1 | EP2 Agonist | < 1e-07 | > 1e-05 | > 1e-05

Next, values leading:

EC50 [1] [µM] | activity (EP2 part) [1] | Ki (human EP2 receptor) [M] | Ki (human EP4 receptor) [M] | Ki (human EP3 receptor) [M] | SMILES
< 0.1 | EP2 agonist | < 1e-06 | > 1e-05 | > 1e-05 | O=C(O)Cc1cccc(NC(=O)c2cc(-c3ccccc3)ccc2Cl)c1 [Compound 44, {3-[(4-Chloro-biphenyl-3-carbonyl)-amino]-phenyl}-acetic acid]
< 0.1 | EP2 agonist | < 1e-06 | > 1e-05 | > 1e-05 | O=C(O)Cc1cccc(NC(=O)c2cccc(-c3ccccc3)n2)c1 [Compound 45, {3-[(6-Phenyl-pyridine-2-carbonyl)-amino]-phenyl}-acetic acid]
< 0.1 | EP2 agonist | < 1e-06 | > 1e-05 | > 1e-05 | O=C(O)Cc1cccc(NC(=O)c2cccc(-c3ccccc3)c2)c1 [Compound 49, {3-[(Biphenyl-3-carbonyl)-amino]-phenyl}-acetic acid]
< 0.1 | EP2 agonist | < 1e-06 | > 1e-05 | > 1e-05 | O=C(O)Cc1cccc(NC(=O)c2cc(-c3ccccc3)ccc2F)c1 [Compound 51, {3-[(4-Fluoro-biphenyl-3-carbonyl)-amino]-phenyl}-acetic acid]
< 0.1 | EP2 agonist | < 1e-06 | > 1e-05 | > 1e-05 | O=C(O)Cc1cccc(NC(=O)c2cc(F)cc(-c3ccccc3)c2)c1 [Compound 52, {3-[(5-fluoro-biphenyl-3-carbonyl)-amino]-phenyl}-acetic acid]

Reference: patent publication US7326732B2, “EP2 receptor agonists” (Pharmagene Laboratories Limited, priority 2004, dated 2008)
